Literature values as cited in patent publication US20040170996A1, “Cytotoxic T-Lymphocyte antigen-4 or interleukin-10 polymorphisms as predictors of response to therapeutic intervention” (priority 2001, published 2004).

System: interleukin-10 production
Conditions: several in vitro studies

NC(=O)c1ncn([C@@H]2O[C@H](CO)[C@@H](O)[C@H]2O)n1 [Ribavirin, ribavirin]
Effect on interleukin-10 production: downregulate interleukin-10 production
